Structures can show the parent of a compound that is named as a salt.
Experiments:
Shay ulcer of rats = test: Effect on Shay ulcer of rats (pylorus ligation); type: in vivo, Wistar male rats; settings: for Inhibition rate: ulcer-index 19 h after pylorus ligation
Experimental: Effect on Shay ulcer of rats
A group of 8 Wistar male rats weighing 130-180 g were used in a group. […] Nineteen hours after ligation, the severity of ulcerous lesions in the proventricular part of the stomach was observed and expressed in a numerical scale according to the method of Adami et al. (Arch. Int. Pharmacodyn. Ther., 143, 113 (1964)) as the ulcer-index. Inhibition of ulceration was calculated with ulcer-indexes of the treated group and those of a control group. The anti-ulcer effects of well-known therapeutic agents on the market, sulpiride and cetraxate, were examined for comparison.

[1] = tested on: histamine-induced ulcer in guinea-pigs; test: Effect on histamine-induced ulcer in guinea-pigs; type: in vivo, male guinea-pigs; settings: for Inhibition rate: 2 h
Experimental: Effect on histamine-induced ulcer in guinea-pigs
Groups of 10 male guinea-pigs weighing 280-300 g were used. […] Two hours later, the stomach was removed and the size of the ulcerous lesions were measured. Based on the size of the lesions, the inhibitory effect of the drug was estimated. The effects of sulpiride, cetraxate and aluminum sucrose sulphate were also determined for comparison.

[2] = tested on: acetic acid-induced ulcer in rats; test: Effect on acetic acid-induced ulcer in rats; type: in vivo, male Wistar rats; settings: for Inhibition rate: lesion size 12 days after acetic acid
Experimental: Effect on acetic acid-induced ulcer in rats
Groups of 14-16 male Wistar rats weighing 210-280 g were used. According to the method of Okabe et al. (Folia Pharmacologica Japonica, 74, 773 (1978)), 0.015 ml of 20% acetic acid solution was injected under the serous membrane at the border of the proventricular part and glandular part of the stomach. […] The stomach was removed 12 days after the injection of acetic acid and the size of the ulcerous lesions was measured. Based on the size of the lesions, the inhibitory effect of the drug was estimated. The effects of sulpiride were also determined for comparison.

[3] = Stability at room temperature; type: physicochemical; settings: maleic acid salt
Solubility = type: physicochemical
ICR mice = test: in vivo; settings: Table 4: ICR mice and Wistar rats, acute oral toxicity
Experimental: (§1) LD50 was calculated by the Litchfield-Wilcoxon method using mortality at 7 days after drug administration.

in vivo = settings: mouse, in vivo, po, LD50, ICR mice, mortality at 7 days, Litchfield-Wilcoxon method
Experimental: as §1

[4] = Acute oral toxicity in rats; settings: rat, in vivo, Wistar rats, male, mortality at 7 days, Litchfield-Wilcoxon method
[5] = known compound; cited from earlier work
[6] = histamine-induced ulcer, 300 mg/kg, 5 mg/kg i.v. histamine

CCN1CCCC1CNC(=O)c1cc(S(N)(=O)=O)ccc1OC (stereo not drawn) [Sulpiride, reference compound]
Inhibition rate (Shay ulcer of rats; Shay ulcer, 100 mg/kg): 16.3% | Inhibition rate [1, 6]: 5.6% | Inhibition rate ([2]; acetic acid-induced ulcer, 100 mg/kg): 43.9%

CN1CCC2=C(C1)c1ccccc1Cc1ccccc12 [Maleic acid salt of MO-8282]
stability [3]: stable at room temperature | solubility (soluble in) (Solubility; water or ethanol, maleic acid salt): soluble in water or ethanol

NC[C@H]1CC[C@H](C(=O)Oc2ccc(CCC(=O)O)cc2)CC1 [Cetraxate, reference compound]
Inhibition rate (Shay ulcer of rats; Shay ulcer, 300 mg/kg): 44.2% | Inhibition rate [1, 6]: -7.0%

CN1CCC2=C(C1)c1ccccc1Cc1ccccc12 [MO-8282, 2-N-methyl-1,2,3,4-tetrahydro-9H-dibenzo[a,e]-pyridino[3,4-c]-cycloheptatriene]
inhibitory action on Shay ulcer (in words) (Shay ulcer of rats): significant inhibitory action on Shay ulcer in rats | Inhibition rate (Shay ulcer of rats; Shay ulcer, 3 mg/kg s.c.): 34.9% | Inhibition rate (Shay ulcer of rats; Shay ulcer, 10 mg/kg s.c.): 44.2% | efficacy compared with reference drugs (in words) (Shay ulcer of rats; Shay ulcer, versus sulpiride and cetraxate): superior to the two reference drugs, sulpiride and cetraxate | toxic dose compared with therapeutic dose (in words) (ICR mice): considerably higher than its therapeutic dose | LD50 at 168 h (in vivo; female): 454 mg/kg | LD50 at 168 h (in vivo; male): 423 mg/kg | solubility (insoluble in) (Solubility; ethanol, free base): insoluble in ethanol | solubility (soluble in) (Solubility; solvents in which soluble, free base): soluble in ether, ethyl acetate, n-hexane and chloroform | inhibitory action on histamine-induced ulcers (in words) [1]: significant inhibitory action on histamine-induced ulcers in guinea-pigs | Inhibition rate ([1]; histamine-induced ulcer, 3 mg/kg orally 10 min before 5 mg/kg i.v. histamine): 54.7% | Inhibition rate ([1]; histamine-induced ulcer, 10 mg/kg orally 10 min before 5 mg/kg i.v. histamine): 98.6% | efficacy compared with reference drugs (in words) ([1]; histamine-induced ulcer, versus the reference drugs): superior to that of the reference drugs | LD50 at 168 h [4]: 630 mg/kg | inhibitory action on acetic acid-induced ulcer (in words) [2]: significant inhibitory action on acetic acid-induced ulcer in rats | Inhibition rate ([2]; acetic acid-induced ulcer, 3 mg/kg orally three times a day for 10 days): 23.2% | Inhibition rate ([2]; acetic acid-induced ulcer, 10 mg/kg orally three times a day for 10 days): 51.2% | promotion of healing (in words) ([2]; acetic acid-induced ulcer, microscopic observation): promotion of healing by the compound was also evident under microscopic observation | efficacy compared with reference drug (in words) ([2]; acetic acid-induced ulcer, versus sulpiride): superior to that of the reference drug with a lower dose | anti-depressive activity (in words) [5]: has anti-depressive activity

— patent US4447437A, “Pharmaceutical composition and method for treatment of peptic ulcer” (priority 1981, dated 1984)
